Measurements from patent US20070014692A1, “Method and apparatus for measurement of binding between a protein and a nucleotide” (priority 1998, published 2007).

Target: T1, human estrogen receptor binding to the ERE (estrogen response element from Xenopus Vitellogenen A2 Gene) (Homo sapiens, UniProt P03372)
T1 construct: ubiquitin (gene fusion); host or cells: Saccharomyces cerevisiae strain AF103, YEpE10 plasmid, CUP1 promoter
Experiment: Evanescent fiber optic sensor with ERE fiber: binding of Cy5-tagged hER to estrogen response element in the presence of compound (S/C)

T1 sequence (P03372 whole entry, the tested form may be a part): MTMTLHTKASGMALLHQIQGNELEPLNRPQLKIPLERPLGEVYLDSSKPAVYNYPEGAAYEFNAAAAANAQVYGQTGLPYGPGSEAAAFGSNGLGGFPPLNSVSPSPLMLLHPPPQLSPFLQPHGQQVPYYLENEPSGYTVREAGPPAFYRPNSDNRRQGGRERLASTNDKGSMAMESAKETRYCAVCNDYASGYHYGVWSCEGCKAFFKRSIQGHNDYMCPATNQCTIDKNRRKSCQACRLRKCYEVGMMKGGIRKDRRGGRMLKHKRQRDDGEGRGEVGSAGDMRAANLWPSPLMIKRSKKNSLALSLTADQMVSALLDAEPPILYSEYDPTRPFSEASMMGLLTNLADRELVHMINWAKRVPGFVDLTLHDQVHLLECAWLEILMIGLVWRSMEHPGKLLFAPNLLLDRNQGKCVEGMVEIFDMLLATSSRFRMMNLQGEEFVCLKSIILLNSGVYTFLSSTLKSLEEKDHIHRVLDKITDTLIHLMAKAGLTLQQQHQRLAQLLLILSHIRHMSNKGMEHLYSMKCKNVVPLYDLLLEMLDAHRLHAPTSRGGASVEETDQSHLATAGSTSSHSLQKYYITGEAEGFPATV

C[C@H]1CCCC(=O)CCC/C=C/c2cc(O)cc(O)c2C(=O)O1 [zearalenone]
effect on binding of receptor to the ERE fiber, in words (10^−6M compound): increase binding to the ERE more than do the weak biological estrogens | Response of ERE fiber to hER and 10^−6M compound (control = 3.51) (S/C value, control = 3.51): 5.01
